In PubChem BioAssay (NCI):
Values joined by “and” are separate entries in the source; they are usually repeats but may differ in a detail not shown here. Equal values may be shown once.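 Five concentrations, 48 hours, 96-well plates. GI50: concentration for 50% inhibition of growth. TGI is the concentration that stops growth completely.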

How the values were obtained:
Assay in all cases: NCI anticancer screen, dose series, 48 h
[1] = tested on: UO-31 renal
[2] = tested on: A498 renal
[3] = tested on: OVCAR-3 ovarian
[4] = tested on: TK-10 renal
[5] = tested on: NCI-H23 lung
[6] = tested on: K-562 leukemia
[7] = tested on: SK-MEL-2 melanoma
[8] = tested on: MDA-MB-435
[9] = tested on: DU-145 prostate
[10] = tested on: MDA-MB-231 breast

SMILES | TGI [1] | TGI [2] | TGI [3] | TGI [4] | TGI [5] | TGI [6] | TGI [7] | TGI [8] | TGI [9] | TGI [10] | GI50 [1] | GI50 [2] | GI50 [8] [µM] | GI50 [3] [µM] | GI50 [9] | GI50 [4] [µM] | GI50 [5] | GI50 [6] | GI50 [10] [µM] | GI50 [7] [µM]
Nc1nc(=Nc2ccccc2)ss1 | > 100 µM | > 100 µM | > 100 µM | > 100 µM | > 100 µM | > 100 µM |  |  |  |  |  |  |  |  |  |  |  |  |  | 
CC1=Nc2ccccc2C12C(c1ccccc1)C(c1ccccc1)C(=O)N1c3ccccc3CC12 (centres undefined) | > 100 µM | > 100 µM | > 100 µM | > 100 µM | > 100 µM | > 100 µM | > 100 µM |  |  |  |  |  |  |  |  |  |  |  |  | 
COC(=O)C1=C(C)N(NC(N)=O)C(C)(O)C12CCOC2=O (centres undefined) | > 100 µM | > 100 µM | > 100 µM | > 100 µM | > 100 µM | > 100 µM | > 100 µM |  |  |  |  |  |  |  |  |  |  |  |  | 
Cc1ccc2c(c1)C=CC(C#N)N2C(=O)Oc1ccccc1 (centres undefined) | > 100 µM | 55.4 µM |  | 94.2 µM | 44.5 µM | 64.4 µM | 61.9 µM | 29.7 µM | 42.7 µM | > 100 µM |  |  |  |  |  |  |  |  |  | 
CCCN1C(=O)CNC(=O)c2[nH]cnc21 | > 100 µM | > 100 µM | > 100 µM | > 100 µM | > 100 µM | > 100 µM | > 100 µM |  |  |  |  |  |  |  |  |  |  |  |  | 
Cc1ccc(N2C(=O)C(Cl)=C(Cl)C2=O)cc1 | > 100 µM | > 100 µM | 30.5 µM |  | 41.3 µM | 87.4 µM | > 100 µM |  |  |  |  |  |  |  |  |  |  |  |  | 
CC(C)c1cccc(C(C)C)c1NC(=O)CCC(=O)NN | > 100 µM | > 100 µM | > 100 µM | > 100 µM | > 100 µM | > 100 µM |  |  |  |  |  |  |  |  |  |  |  |  |  | 
C/C=C/C1=CN2C(=O)c3cc(OC4OC(C)C(NC)C(C)(O)C4O)c(C)c(O)c3N=C[C@@H]2C1 (some centres undefined) |  | 0.0887 µM and < 0.01 µM |  |  |  | > 100 µM |  | 0.286 µM | 10.7 µM |  | 0.0926 µM and < 0.01 µM | 0.0282 µM and < 0.01 µM | 0.0819 | 0.203 | 0.0617 µM and < 0.01 µM | 0.326 | 0.0784 µM and < 0.01 µM | 0.0431 µM and < 0.01 µM |  | 
O=C(Cc1ccccc1)NS(=O)(=O)c1ccccc1 | > 100 µM | > 100 µM | > 100 µM | > 100 µM | > 100 µM | > 100 µM | > 100 µM |  |  |  |  |  |  |  |  |  |  |  |  | 
Nc1ncnc2c1ncn2C1OC(COC2C(CO)OC(OC(C(=O)O)C(O)C(OP(=O)(O)O)C(O)C(=O)O)C(O)C2O)C(O)C1O (centres undefined) |  | > 100 µM | > 100 µM | > 100 µM | > 100 µM | > 100 µM | > 100 µM | > 100 µM |  | > 100 µM |  |  |  |  |  |  |  |  |  | 
CCCCCCCCCCCCC(CCCCCCCCCCCC)OP(=O)(O)O | > 100 µM | 52.8 µM | > 100 µM | > 100 µM | > 100 µM | > 100 µM | > 100 µM |  |  |  |  |  |  |  |  |  |  |  |  | 
O=NN(CCCl)C(=O)N[C@H]1CCCC[C@@H]1Cl | > 100 µM | > 100 µM | > 100 µM | > 100 µM | > 100 µM | > 100 µM | > 100 µM |  |  |  |  |  |  |  |  |  |  |  |  | 
Cn1sc2ccccc2c1=S | 28.7 µM | 99 µM | 10.5 µM | 44.8 µM | 34.7 µM | 26.1 µM | 56.5 µM |  |  |  |  |  |  |  |  |  |  |  |  | 
Nc1ccccc1C#Cc1ccccc1C#Cc1cnccn1 | 28.1 µM |  | 25.8 µM |  | 30.5 µM | 93.1 µM |  | 13.6 µM | 28.1 µM | 29.3 µM | 12.1 µM |  | 3.48 | 9.79 | 14.5 µM |  | 16.8 µM | 26.1 µM | 14.3 | 
COc1cnc2c(c1)C(=O)c1c-2n(CCCNC(C)C)c(=O)c2cc([N+](=O)[O-])ccc12 | 0.135 µM |  | 0.247 µM | 0.318 µM | 0.285 µM | 0.485 µM | 0.406 µM | 0.261 µM | 0.403 µM | 0.438 µM | 0.0243 µM |  | 0.109 | 0.0824 | 0.0502 µM | 0.134 | 0.0401 µM | 0.0443 µM | 0.157 | 0.195
c1ccc2c3c(ccc2c1)-c1c(ccc2c(NCCCCN4CCCCC4)cccc12)C3 | 7.66 µM |  | 2.52 µM | 4.57 µM | 3.16 µM | 5.85 µM | 6.42 µM | 3.31 µM | 3.33 µM | 2.21 µM | 2.61 µM |  | 1.91 | 1.21 | 1.77 µM | 2.24 | 1.7 µM | 1.67 µM | 0.599 | 2.92
CCCCCCNCCCNc1c2ccccc2nc2cccc([N+](=O)[O-])c12 | 0.393 µM and 0.331 µM | 0.321 µM and 0.327 µM | 0.0477 µM and 0.206 µM | 0.787 µM and 0.512 µM | 0.0253 µM and 0.0599 µM | 0.0212 µM | 0.0331 µM and 0.0231 µM | 0.0226 µM and 0.0234 µM |  | 0.0933 µM and 0.221 µM | 0.145 µM | 0.0931 µM |  | 0.0395 |  | 0.0705 | 0.0159 µM |  | 0.0151 | 
Cn1c(=N)n[n+]([O-])c2ccccc21 | 8.83 µM and 17.6 µM | 9.7 µM and 23.2 µM |  | 70 µM and > 59.4 µM | 4.4 µM and 6.39 µM | 10.8 µM and 5.45 µM | 8.87 µM and 12.5 µM | 1.83 µM and 2.39 µM | 4.11 µM and 4.12 µM | > 100 µM |  | 3.07 µM and 9.29 µM |  |  |  |  | 2.44 µM |  |  | 
COc1cc(/C=C2\C[C@H]3[C@@H]4CC=C5C[C@@H](OC(C)=O)CC[C@]5(C)[C@H]4CC[C@]3(C)[C@H]2OC(C)=O)ccc1OCCN1CCCCC1 | 29.1 µM |  | > 50 µM | 19.1 µM | > 50 µM | 43.2 µM | > 50 µM | 44.4 µM | 44.4 µM | 25.4 µM | 11.1 µM |  | 14.4 | 18.5 | 15.2 µM | 10.5 | > 50 µM | 12.8 µM | 11 | 20.1
C#Cc1cc(CN(CC(=O)OC(C)(C)C)CC(=O)OC(C)(C)C)nc(CN(CC(=O)OC(C)(C)C)CC(=O)OC(C)(C)C)c1 | 26 µM | 76.1 µM | > 100 µM | > 100 µM | 26.3 µM | 26.6 µM | 8.24 µM |  |  |  |  |  |  |  |  |  |  |  |  | 
CCOC(=O)NC1CC2CCC1(OC)C=C2C (centres undefined) | > 100 µM | > 100 µM | > 100 µM | > 100 µM | > 100 µM | > 100 µM | > 100 µM |  |  |  |  |  |  |  |  |  |  |  |  | 
